One test deals with HUFEC. Put plainly: Cell Migration Assay (CMA) Test, inhibitory rate with control (-) correction. Type of test: cell-based, human. Conditions: Homo sapiens, 24 h, 125 μl of 0.32 mM sample solution in 4.0 ml medium, 80% or more = remarkable. Here is the method: (§1) Samples were prepared using the present compounds of Compound No. I-60 through I-315. More specifically, 32 μl of a 20 mM sample solution dissolved in dimethylsulfoxide (DMSO) were removed and brought to a volume of 1 ml with phosphate-buffered saline (PBS) to prepare a sample solution having a concentration of 0.32 mM (containing 3.2% DMSO).
After disseminating the 7th subculture of […] obtained from the first generation at 4 ml/well (3.0×10^5 cells/well) in a collagen-coated 6-well plate (NUNC), the cells were cultured for 48 hours at 37° C. in the presence of 5% CO2. The cells reached nearly a completely confluent state as a result of this culturing.
A double-edged, disposable razor blade was divided into four sections, of which one of those sections was pinched between a pair of forceps. Using this piece of razor blade, the cell surface in the above confluent state was scraped off.
After washing the surface of the wells from which the cells had been scraped off with medium, 4.0 ml of fresh M199 (2+) medium were placed in the wells. 4.0 ml of M199 medium were added to the control (-) well.
125 μl of sample solution (0.32 mM, containing 3.2% dimethylsulfoxide) were added to the wells.
125 μl of PBS solution containing 3.2% dimethylsulfoxide were added to the control wells instead of sample. The cells were cultured for 24 hours at 37° C. in the presence of 5% CO2. After discarding the culture liquid, the cells were fixed for 30 minutes with methanol. Next, after […] the cells for 4 hours with Giemsa stain, the plates were washed with tap water and air dried.
Measurement of cell migration was performed by microscopically counting the number of cells that had newly migrated within the range of a 1 mm×1 mm block. […] The total number of cells counted in blocks 1 through 5 were then totaled to determine the overall total number of cells. Four fields were counted for each well.
Evaluation was performed determining the cell migration inhibitory rate (%) according to the following equation.
Inhibitory rate=100-((number of migrating cells to which sample was added-number of migrating cells of control (-))×100/(number of migrating cells of control (+)-number of migrating cells of control (-)))
If this inhibitory rate was 80% or more, cell migration was assessed as being remarkable.

For test [1], the system named is human umbilical-vein endothelial cells (HUVEC). In words: Tube Formation Assay (TFA) Test, HUVEC in collagen gel. Type of test: cell-based. Particulars: Homo sapiens, HUVEC, Tables 75-83; 0.32 mM sample solution; method as for Compounds 1 through 60; read-out: TFA Inhibition rate (%). Here is the method: Furthermore, the sample liquids of compounds used in the CPA and CMA tests were prepared in the manner described below. Firstly, after weighing out each compound, a calculated amount of DMSO was added. After dissolving the compound in the DMSO, phosphate buffered physiological saline (PBS (-)) was added to bring the sample concentration to 1 mg/ml in PBS (-). The amount of DMSO used to dissolve the compounds was adjusted in advance to that the concentration of DMSO at that time was 5%. The resulting liquids were diluted 10-fold with 5% DMSO-PBS (-) solution to prepare sample solutions having a concentration of 0.1 mg/ml. In the TFA test, 320 μl of the prepared 1 mg/ml sample solutions were removed followed by addition of 680 μl of PBS (-) to prepare samples having a concentration of […]. Moreover, 100 μl of this solution was removed followed by addition of 900 μl of PBS (-) to dilute 10-fold and prepare samples having a concentration of 1 μg/ml. P [Cell Proliferation Assay (CPA) Test]
To begin with, 8 volumes of Type 1-A cell matrix (manufactured by Gibco Co.), 1 volume of 10×M119, and 1 volume of reconstituted buffer [200 mM HEPES, 0.05 N sodium hydroxide, 260 mM sodium bicarbonate] were slowly mixed under cooling with ice while avoiding bubbling to form a collagen gel. This collagen gel was distributed in a NUNC 24-well plate at 310 μl/well followed by allowing to stand undisturbed for 2 hours at 37° C. to solidify the gel.
Next, the 7th subculture of HUVEC (1×10^5 cells/ml) obtained from the first generation in the same manner as above were disseminated at 500 μl/well. The cells were cultured for 2 hours at 37° C. to allow the cells to make contact with the collagen. After then removing the medium by aspiration, 50 μl of sample solution were added followed by addition of 310 μl/well of freshly prepared collagen gel and culturing for 1 hour and 10 minutes at 37° C. to solidify the double-layer gel.
1 ml/well of M-199 medium containing 20% FCS, 30 ng /ml of b-FGF and 0.1 μM PMA were added to the wells followed by culturing for 20 hours at 37° C. in the presence of 5% CO2.
Measurement of the lengths of the formed tubes was performed using the public domain NIH Image with a computer.
Evaluation was performed by calculating the inhibition rate (%) of tube formation according to the following formula.
Inhibition rate (%)=100-((formed tube length in presence of sample-formed tube length in presence of control (-))×100/(formed tube length in presence of control (+)-formed tube length in presence of control (-)))
as §1
The testing method used for these compounds was the same as that used for the compounds of Compound No. 1 through 60 previously described.

A word on the inhibition: it is the relative decrease from the control value, in per cent.

For the molecule `COC(=O)C1=CO[C@@H](OC(=O)NCCc2cccc(F)c2)[C@@H]2C(C)=CC[C@H]12` [I-99], the inhibition at 320 µM (stock) in the test with HUFEC worked out at 9.9%; in test [1], 8.6%.

As to `COC(=O)C1=CO[C@@H](OC(=O)N2CCN(CCO)CC2)[C@@H]2C(C)=CC[C@H]12` [I-71], the figures for the inhibition at 320 µM (stock) (in the test with HUFEC; in test [1]) were 25.4% and 4.1%, respectively.

On to `COC(=O)C1=CO[C@@H](OC(=O)N2CCN(c3cccc(C(F)(F)F)c3)CC2)[C@@H]2C(C)=CC[C@H]12` [I-130], for which the inhibition at 320 µM (stock) with HUFEC came to 7.5%; in test [1], 5.5%.

As for `COC(=O)C1=CO[C@@H](OC(=O)Nc2ccc([N+](=O)[O-])cc2)[C@H]2[C@@H]1CC[C@@H]2C` [I-269], the inhibition at 320 µM (stock) turned out to be 19.5% in the test with HUFEC and 8.3% in test [1].

Regarding `COC(=O)C1=CO[C@@H](OC(=O)NC(=O)c2ccccc2)[C@H]2[C@@H]1CC[C@@H]2C` [I-272], the inhibition at 320 µM (stock) with HUFEC came out at 5.7%; in test [1], 7.9%.

Regarding `COC(=O)C1=CO[C@@H](OC(=O)Nc2ccc(Cl)c(Cl)c2)[C@@H]2C(C)=CC[C@H]12` [I-163], the inhibition at 320 µM (stock) with HUFEC was 5.6%; in test [1], 11.5%.

On to `CNC(=O)O[C@@H]1OC=C(C(=O)NCCS)[C@H]2C[C@@H]3O[C@]3(C)[C@@H]12` [I-64], for which the results for the inhibition at 320 µM (stock) (in the test on HUFEC; in test [1]) were 9.4% and 5.2%, respectively.

Consider `COC(=O)C1=CO[C@@H](OC(=O)NCc2ccncc2)[C@@H]2C(C)=CC[C@H]12` [I-116], for which the inhibition at 320 µM (stock) with HUFEC turned out to be 5.6%; in test [1] it was 6.9%.

Regarding `C[C@]12O[C@H]1C[C@@H]1C(C(=O)N3CCN(CCO)CC3)=CO[C@@H](OC(=O)NCCCl)[C@@H]12` [I-68], the inhibition at 320 µM (stock) with HUFEC stood at 65.6%; in test [1], 9.2%.

Take `CCOC(=O)c1ccc(NC(=O)O[C@@H]2OC=C(C(=O)OC)[C@H]3CC=C(C)[C@@H]23)cc1` [I-167]: the inhibition at 320 µM (stock) in the test with HUFEC was found to be 4.1%; in test [1], 5.1%.

Regarding `COC(=O)C1=CO[C@@H](OC(N)=O)[C@@H]2C(C)=CC[C@H]12` [I-70], the inhibition at 320 µM (stock) is 7.1% with HUFEC and 75.4% in test [1].

Take `COC(=O)C1=CO[C@@H](OC(=O)NC2CCN(Cc3ccccc3)CC2)[C@@H]2C(C)=CC[C@H]12` [I-89]: the inhibition at 320 µM (stock) in the test on HUFEC was determined as 9.9%; in test [1] it was 31.3%.

Take `COC(=O)C1=CO[C@@H](OC(=O)Nc2c(F)cccc2F)[C@@H]2C(C)=CC[C@H]12` [I-157]: the inhibition at 320 µM (stock) with HUFEC came to 7.7%; in test [1] it was 12.9%.

`COC(=O)C1=CO[C@@H](OC(=O)NCCc2cccc(F)c2)[C@H]2[C@@H]1CC[C@@H]2C` [I-205]: the inhibition at 320 µM (stock) in the test with HUFEC was 8.7%; in test [1] it was 2%.

Regarding `CONC(=O)O[C@@H]1OC=C(C(=O)OC)[C@H]2CC=C(C)[C@@H]12` [I-137], the inhibition at 320 µM (stock) with HUFEC is 3.3%; in test [1], 6.4%.

As to `COC(=O)C1=CO[C@@H](OC(=O)N2CCN(c3ccccc3F)CC2)[C@H]2[C@@H]1CC[C@@H]2C` [I-251], the inhibition at 320 µM (stock) stood at 8.7% with HUFEC and 7.9% in test [1].

With `COC(=O)C1=CO[C@@H](OC(=O)NCc2ccc3c(c2)OCO3)[C@@H]2C(C)=CC[C@H]12` [I-129], the inhibition at 320 µM (stock) in the test on HUFEC came to 4.3%; in test [1] it was 19.5%.

Take `COC(=O)CNC(=O)O[C@@H]1OC=C(C(=O)OC)[C@H]2CC=C(C)[C@@H]12` [I-144]: the inhibition at 320 µM (stock) in the test on HUFEC is 31.2%; in test [1], 7.5%.

With `COC(=O)C1=CO[C@@H](OC(=O)Nc2ccc(F)cc2F)[C@H]2[C@@H]1CC[C@@H]2C` [I-256], the inhibition at 320 µM (stock) came to 5% in the test on HUFEC and 4% in test [1].

In the case of `CCNC(=O)O[C@@H]1OC=C(C(=O)OC)[C@H]2CC[C@H](C)[C@@H]12` [I-262], the values for the inhibition at 320 µM (stock) (in the test with HUFEC; in test [1]) were 6.3% and 8.8%, respectively.

As for `CC1=CC[C@@H]2C(C(=O)O)=CO[C@@H](OC(=O)Nc3ccc(F)cc3F)[C@H]12` [I-308], the figures for the inhibition at 320 µM (stock) (with HUFEC; in test [1]) were 32.1% and 23.2%, respectively.

Turning to `COC(=O)C1=CO[C@@H](OC(=O)NCc2ccc(S(N)(=O)=O)cc2)[C@@H]2C(C)=CC[C@H]12` [I-133], the inhibition at 320 µM (stock) was found to be 3.9% in the test with HUFEC and 9.5% in test [1].

With `COC(=O)C1=CO[C@@H](OC(=O)NCCCCl)[C@@H]2C(C)=CC[C@H]12` [I-142], the inhibition at 320 µM (stock) with HUFEC worked out at 9.8%; in test [1] it was 3.7%.

Turning to `COC(=O)C1=CO[C@@H](OC(=O)N2CCC2)[C@@H]2C(C)=CC[C@H]12` [I-148], the inhibition at 320 µM (stock) with HUFEC came out at 3.4%; in test [1], 5.1%.

On to `COC(=O)C1=CO[C@@H](OC(=O)NCCc2ccccn2)[C@@H]2C(C)=CC[C@H]12` [I-79], for which the inhibition at 320 µM (stock) in the test with HUFEC was 13.7%; in test [1], 4.7%.

Turning to `COC(=O)C1=CO[C@@H](OC(=O)N2CCc3ccccc3C2)[C@H]2[C@@H]1CC[C@@H]2C` [I-225], the inhibition at 320 µM (stock) in the test on HUFEC is 25%; in test [1], 5.5%.

Take `COC(=O)C1=CO[C@@H](OC(=O)NCCc2ccc(O)c(OC)c2)[C@@H]2C(C)=CC[C@H]12` [I-146]: the inhibition at 320 µM (stock) with HUFEC amounted to 17.2%; in test [1], 7.8%.

Take `COC(=O)C1=CO[C@@H](OC(=O)NCCN(C)C)[C@H]2[C@@H]1CC[C@@H]2C` [I-222]: the inhibition at 320 µM (stock) worked out at 3.7% in the test on HUFEC and 20.8% in test [1].

Turning to `COC(=O)C1=CO[C@@H](OC(=O)Nc2cccc(C(F)(F)F)c2)[C@@H]2C(C)=CC[C@H]12` [I-160], the inhibition at 320 µM (stock) with HUFEC is 6.3%; in test [1] it was 13.8%.

Regarding `COC(=O)C1=CO[C@@H](OC(=O)NCc2ccc(Cl)c(Cl)c2)[C@H]2[C@@H]1CC[C@@H]2C` [I-196], the inhibition at 320 µM (stock) in the test on HUFEC was found to be 27.6%; in test [1], 6.2%.

Turning to `COC(=O)C1=CO[C@@H](OC(=O)N2CCc3ccccc3C2)[C@@H]2C(C)=CC[C@H]12` [I-120], the inhibition at 320 µM (stock) was 3.1% with HUFEC and 7.8% in test [1].

Regarding `COC(=O)C1=CO[C@@H](OC(=O)Nc2cccc(C#N)c2)[C@@H]2C(C)=CC[C@H]12` [I-166], the inhibition at 320 µM (stock) in the test with HUFEC was 8.7%; in test [1], 9.1%.

Regarding `COC(=O)C1=CO[C@@H](OC(=O)N2CC=CCC2)[C@@H]2C(C)=CC[C@H]12` [I-91], the figures for the inhibition at 320 µM (stock) (with HUFEC; in test [1]) were 21.6% and 5.1%, respectively.

For `COC(=O)C1=CO[C@@H](OC(=O)Nc2ccc(F)cc2F)[C@@H]2C(C)=CC[C@H]12` [I-154], the inhibition at 320 µM (stock) in test [1] came to 56.2%.

The values above are taken from patent US6225478A, “Iridoid derivatives and neovascularization inhibitors containing the same as active ingredient” (Tsumura & Co., priority 1999, dated 2001).
